Patent US10736898B2, “Positive allosteric modulators of the muscarinic acetylcholine receptor M4” (Vanderbilt University, priority 2017, dated 2020)

What was measured:
[1] = Rat brain:plasma distribution; assay type: in vivo
Method: (§1) Compound 1 was evaluated in several in vivo studies to investigate its metabolism and pharmacokinetics.

[2] = In vivo pharmacokinetics in rats (IV and PO)
Method: as §1
Male Sprague-Dawley rats (n=2) weighing around 300 g were purchased from Harlon Laboratories (Indianapolis, Ind.) and implanted with catheters in the carotid artery and jugular vein. For intravenous (IV) administration, male Sprague-Dawley rats (n=2) were each administered a single 0.2 mg/kg dose of the test article via a jugular cannula and then blood samples were collected via a carotid artery catheter at 0.033, 0.117, 0.25, 0.5, 1, 2, 4, 7, 12, and 24 hours post-dosing from each animal. For oral (PO) administration, fasted male Sprague-Dawley rats (n=2) were each administered a single 3 mg/kg dose of the test article via oral gavage and then blood samples were collected via a carotid artery catheter at 0.25, 0.5, 1, 2, 4, 7, 12, and 24 hours post-dosing from each animal. Upon sampling, blood was collected into chilled, EDTA-fortified tubes and immediately placed on wet ice. Samples were then centrifuged for 10 minutes at 3500 rcf (at 4° C.) to obtain plasma. The plasma samples were stored at −80° C. until analysis. During the analysis, the samples were thawed on bench at room temperature and 20 μL was transferred to 96-well plate. 120 μL of 50 nM carbamazepine in acetonitrile was added to the plasma sample to precipitate the protein and provide the internal standard. After vortex and centrifugation, 75 μL of supernatant was transferred to another 96-well plate that contained 75 μL of water. 10 μL of the diluted supernatant was injected onto an AB Sciex 4000 or 5500 LC-MS/MS system for quantitation. The detection range for analyte was 0.5 to 5000 ng/mL utilizing a quadratic curve with 1/x^2 weighting. Sciex Analyst 1.4.2 software was used for data acquisition and quantitation. Pharmacokinetic parameters were determined from individual animal data using non-compartmental analysis (Model 201) in WinNonlin (v5.3, Pharsight Corp., Mountain View, Calif.).

[3] = target: T1, Human M4 (Homo sapiens, UniProt P08173); test: mAChR M4 cell-based functional assay (calcium flux, potentiation of EC20 acetylcholine response)
T1 construct: expressed in transfected cells
T1 sequence (P08173 1-479): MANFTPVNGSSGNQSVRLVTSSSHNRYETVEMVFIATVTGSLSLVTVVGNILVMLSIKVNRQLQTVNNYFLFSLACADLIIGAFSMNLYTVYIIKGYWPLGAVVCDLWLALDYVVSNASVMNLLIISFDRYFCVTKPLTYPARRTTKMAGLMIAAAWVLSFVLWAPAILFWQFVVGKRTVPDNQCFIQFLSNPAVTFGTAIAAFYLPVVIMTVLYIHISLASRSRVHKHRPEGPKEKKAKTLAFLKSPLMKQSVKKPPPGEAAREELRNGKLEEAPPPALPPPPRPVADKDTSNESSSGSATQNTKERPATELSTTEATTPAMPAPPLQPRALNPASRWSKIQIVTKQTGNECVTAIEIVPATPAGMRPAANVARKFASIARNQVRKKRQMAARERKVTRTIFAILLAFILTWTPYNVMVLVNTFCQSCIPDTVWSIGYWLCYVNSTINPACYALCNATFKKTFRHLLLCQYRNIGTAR

[4] = In vivo pharmacokinetics in dogs (IV and PO)
Method: as §1
Dogs (male, Beagle, weighing approximately 8-15 kg, n=2) were dosed intravenously (0.5 mg/kg) via cephalic vein and orally (3 mg/kg) by gavage. Blood samples were collected from the jugular vein via needlestick. Blood samples were obtained at 0.083, 0.25, 0.5, 1, 2, 4, 6, 10, and 24 hours (IV) and 0.25, 0.5, 1, 2, 4, 6, 10, and 24 hours (PO) and plasma harvested for analysis. Sample preparation and bioanalysis was conducted as described above.

[5] = test system: 68 primary molecular targets; test: Eurofins LeadProfilingScreen (binding); conditions: at 10 μM (binding); 68 targets
Description: The screen includes 68 primary molecular targets, including several CNS targets recommended by the EMEA to evaluate drug dependence potential.

[6] = Dog Fu (plasma); assay type: in vitro ADME
Method: (§2) Compound 1 was evaluated in several well-known in vitro assays to investigate both metabolism and pharmacokinetics. Bidirectional permeability/efflux was determined in MDCK-MDR1 cells, which originate from transfection of Madin Darby canine kidney (MDCK) cells with the MDR1 gene. These assays were performed according to known methods as generally described in the following references: Conde-Ceide et al. ACS Med. Chem. Lett. 2015, 6, 716-720; Morris et al. J. Med. Chem. 2014, 57, 10192-10197; and Bubser et al. ACS Chem. Neurosci. 2014, 5, 920-942.

[7] = target: P450 3A4 (Homo sapiens, UniProt P08684); test: P450 3A4 inhibition; assay type: in vitro ADME
Chain of P450 3A4 (P08684 whole entry): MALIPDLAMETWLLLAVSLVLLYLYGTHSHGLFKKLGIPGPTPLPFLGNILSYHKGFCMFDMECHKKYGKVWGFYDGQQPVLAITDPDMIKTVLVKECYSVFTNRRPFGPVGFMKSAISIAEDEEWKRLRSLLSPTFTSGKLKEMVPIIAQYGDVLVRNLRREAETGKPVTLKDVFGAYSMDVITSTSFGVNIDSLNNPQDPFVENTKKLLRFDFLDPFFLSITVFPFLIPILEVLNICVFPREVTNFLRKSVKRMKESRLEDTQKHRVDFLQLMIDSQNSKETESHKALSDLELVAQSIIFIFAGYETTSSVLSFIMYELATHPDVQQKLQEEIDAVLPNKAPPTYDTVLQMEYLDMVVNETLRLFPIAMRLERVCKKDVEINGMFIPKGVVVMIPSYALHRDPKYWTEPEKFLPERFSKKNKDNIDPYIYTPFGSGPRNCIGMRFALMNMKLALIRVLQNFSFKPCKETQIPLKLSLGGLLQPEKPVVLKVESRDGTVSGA
Method: as §2

[8] = target: P450 2D6 (Homo sapiens, UniProt P10635); test: P450 2D6 inhibition; assay type: in vitro ADME
Chain of P450 2D6 (P10635 whole entry): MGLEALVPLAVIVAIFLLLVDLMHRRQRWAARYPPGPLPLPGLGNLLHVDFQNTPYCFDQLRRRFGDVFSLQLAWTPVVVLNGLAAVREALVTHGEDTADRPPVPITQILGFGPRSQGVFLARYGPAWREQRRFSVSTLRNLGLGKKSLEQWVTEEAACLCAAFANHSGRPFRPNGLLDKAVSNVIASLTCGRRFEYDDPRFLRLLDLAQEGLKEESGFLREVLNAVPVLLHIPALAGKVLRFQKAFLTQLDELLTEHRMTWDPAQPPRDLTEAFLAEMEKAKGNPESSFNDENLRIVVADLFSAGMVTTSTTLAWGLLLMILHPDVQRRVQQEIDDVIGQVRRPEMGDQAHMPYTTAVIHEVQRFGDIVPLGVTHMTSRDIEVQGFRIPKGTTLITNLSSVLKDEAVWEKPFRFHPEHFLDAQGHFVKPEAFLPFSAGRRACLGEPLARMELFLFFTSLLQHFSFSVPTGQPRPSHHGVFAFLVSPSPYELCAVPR
Method: as §2

[9] = Human CLint; assay type: in vitro ADME
Method: as §2

[10] = target: T2, P450 1A2 (Homo sapiens, UniProt P05177); test: P450 1A2 inhibition; assay type: in vitro ADME
T2 sequence (P05177 1-516): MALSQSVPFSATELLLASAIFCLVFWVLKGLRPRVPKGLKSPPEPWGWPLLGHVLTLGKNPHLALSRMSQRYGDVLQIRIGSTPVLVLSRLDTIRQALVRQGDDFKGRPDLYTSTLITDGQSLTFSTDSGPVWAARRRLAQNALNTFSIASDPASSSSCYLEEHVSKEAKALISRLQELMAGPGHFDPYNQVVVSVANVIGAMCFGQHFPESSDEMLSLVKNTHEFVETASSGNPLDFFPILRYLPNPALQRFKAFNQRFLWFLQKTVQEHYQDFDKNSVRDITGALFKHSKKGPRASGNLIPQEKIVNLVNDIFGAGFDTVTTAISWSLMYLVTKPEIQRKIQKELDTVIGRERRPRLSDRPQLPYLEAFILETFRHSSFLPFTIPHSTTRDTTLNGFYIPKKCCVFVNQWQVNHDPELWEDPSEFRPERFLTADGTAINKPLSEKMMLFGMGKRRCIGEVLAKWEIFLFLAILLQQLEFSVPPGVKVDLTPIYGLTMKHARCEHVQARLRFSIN
Method: as §2

[11] = target: P450 2C9 (Homo sapiens, UniProt P11712); test: P450 2C9 inhibition; assay type: in vitro ADME
Chain of P450 2C9 (P11712 whole entry): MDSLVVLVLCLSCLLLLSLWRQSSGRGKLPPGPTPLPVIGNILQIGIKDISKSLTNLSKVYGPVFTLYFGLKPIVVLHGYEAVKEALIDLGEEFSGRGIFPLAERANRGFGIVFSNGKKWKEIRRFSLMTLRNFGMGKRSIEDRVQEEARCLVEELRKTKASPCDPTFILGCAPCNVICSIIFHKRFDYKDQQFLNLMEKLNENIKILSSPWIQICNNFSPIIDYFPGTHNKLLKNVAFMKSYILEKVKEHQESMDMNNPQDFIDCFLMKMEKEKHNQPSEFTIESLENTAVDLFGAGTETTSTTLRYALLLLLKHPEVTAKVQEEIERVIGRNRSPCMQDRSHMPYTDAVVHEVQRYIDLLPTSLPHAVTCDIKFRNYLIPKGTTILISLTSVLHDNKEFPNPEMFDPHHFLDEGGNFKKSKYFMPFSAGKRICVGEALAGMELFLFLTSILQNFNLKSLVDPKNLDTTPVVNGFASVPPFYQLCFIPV
Method: as §2

[12] = Rat Fu (plasma); assay type: in vitro ADME
Method: as §2

Kp [1]: 0.74 | Kp uu ([1]; unbound): 0.5 | Rat oral F ([2]; 3 mg/kg PO): >100% | clearance ([2]; male, Sprague-Dawley, plasma, rat, IV 0.2 mg/kg, read-out: Rat CLp): 7.1 mL/min/kg | Vd ([2]; male, Sprague-Dawley, plasma, rat, IV 0.2 mg/kg, read-out: Rat Vss): 1.1 L/kg | half-life ([2]; male, Sprague-Dawley, rat, plasma, read-out: Rat Elim. t1/2 (converted)): 1.9 h | Emax at 30 µM ([3]; % ACh maximum at 30 μM, human M4): 70.4% | EC50 ([3]; CHO-K1 cells with human M4 and Gqi5, increase in EC20 acetylcholine response): 1.25 µM | Dog oral F ([4]; 3 mg/kg PO): 28% | half-life ([4]; male, Beagle, dog, plasma, read-out: Dog Elim. t1/2 (converted)): 2.4 h | clearance ([4]; male, Beagle, plasma, dog, IV 0.5 mg/kg, read-out: Dog CLp): 24 mL/min/kg | Vd ([4]; male, Beagle, plasma, dog, IV 0.5 mg/kg, read-out: Dog Vss): 2.3 L/kg | inhibition of each target in the LeadProfilingScreen [5]: < 50% | fraction unbound [6]: 0.072 | IC50 [7]: 17 µM | IC50 [8]: > 30 µM | CLint scaled [9]: 26 mL/min/kg | IC50 [10]: 23 µM | IC50 [11]: 17 µM | fraction unbound [12]: 0.024
SMILES: Cc1nc(C)c2c(n1)sc1c(NCc3ccc(C(C)(C)O)cc3)ncnc12 [Compound 1, 2-(4-(((7,9-Dimethylthieno[2,3-d:4,5-d′]dipyrimidin-4-yl)amino)methyl)phenyl)propan-2-ol]
